Tests used:
[1] = target: pseudo wild-type KCNQ1 (with mutations C214A/G219C/C331A) (Homo sapiens, UniProt P51787, C214A/C331A/G219C); experiment: Voltage-clamp fluorometry (VCF) of pseudo WT KCNQ1 in Xenopus oocytes; assay type: cell-based; conditions: for G/Gmax Mean: Fig. 3g; for F/Fmax Mean: Fig. 3i
Excerpt: We employed voltage-clamp fluorometry (VCF) to measure the effects of CP1 on voltage-sensor activation. The emission (F) of Alexa 488 C5 maleimide attached to the S3–S4 linker, at residue C219, of the pseudo wild-type KCNQ1 (with mutations C214A/G219C/C331A) reported VSD movements in response to voltage changes, while the ionic current reported pore opening[45] (Fig. 3f, h). Similar to the WT KCNQ1, the G–V relation of the pseudo WT KCNQ1 shifted to negative voltages by −53.3 ± 3.1 mV in the presence of 10 µM CP1 (Fig. 3g). […] However, the F–V relationship shifted only by −17.3 ± 3.6 mV. […] (Supplementary Fig. 3). […] It is also apparent that at extreme negative voltages ≤ −130 mV, where the voltage sensor seemed not activated (F ~ 0, Fig. 3i), a fraction of the channels was constitutively open (G > 0, Fig. 3b, g).
Oocytes were labeled on ice for 45 min with 10 μM Alexa 488 C5 maleimide (Molecular Probes, Eugene, OR) in high K^+ solution (in mM: 98 KCl, 1.8 CaCl2, and 5 HEPES, pH 7.6). Then the cells were washed with ND96 solution and kept on ice until recording. A CA-1B amplifier was used to record whole-oocyte currents in ND96 solution. Fluorescent signals were recorded simultaneously using a Pin20A photodiode (OSI Optoelectronics, CA), filtered using a FITC filter cube (Leica, Germany, for Alexa 488), and then amplified using a patch-clamp amplifier (EPC10, HEKA, Germany).

KCNQ1 = KCNQ1 (Homo sapiens, UniProt P51787); experiment: KCNQ1 co-expressed with CiVSP (PIP2 depletion), two-electrode voltage clamp in Xenopus oocytes; assay type: cell-based; conditions: ~10 µM CP1 injected into the oocyte; pulses to +60 mV
Excerpt: We co-expressed KCNQ1 with the voltage-dependent lipid phosphatase CiVSP[44] in Xenopus oocytes and recorded KCNQ1 currents using two-electrode voltage clamp with consecutive depolarizing voltage pulses. […] To more directly test CP1 effects, we applied CP1 to the intracellular side of the inside-out membrane patch that expressed IKs channels.

shift of F–V relationship (VSD activation) ([1]; 10 µM CP1): −17.3 ± 3.6 mV
shift of G–V relation ([1]; 10 µM CP1): −53.3 ± 3.1 mV
G/Gmax Mean ([1]; 10 µM CP1, 0 mV): 0.7707
G/Gmax Mean ([1]; 10 µM CP1, 10 mV): 0.7200
G/Gmax Mean ([1]; 10 µM CP1, 20 mV): 0.6664
G/Gmax Mean ([1]; 10 µM CP1, 40 mV): 0.5879
G/Gmax Mean ([1]; 10 µM CP1, -10 mV): 0.8231
G/Gmax Mean ([1]; 10 µM CP1, -20 mV): 0.8668
G/Gmax Mean ([1]; 10 µM CP1, -30 mV): 0.9194
G/Gmax Mean ([1]; 10 µM CP1, -40 mV): 0.9570
G/Gmax Mean ([1]; 10 µM CP1, -50 mV): 0.9837
G/Gmax Mean ([1]; 10 µM CP1, -60 mV): 1.0000
G/Gmax Mean ([1]; 10 µM CP1, -70 mV): 0.9888
G/Gmax Mean ([1]; 10 µM CP1, -80 mV): 0.9295
G/Gmax Mean ([1]; 10 µM CP1, -90 mV): 0.8170
G/Gmax Mean ([1]; 10 µM CP1, -100 mV): 0.6596
G/Gmax Mean ([1]; 10 µM CP1, -110 mV): 0.4846
G/Gmax Mean ([1]; 10 µM CP1, -120 mV): 0.3240
G/Gmax Mean ([1]; 10 µM CP1, -130 mV): 0.2412
G/Gmax Mean ([1]; 10 µM CP1, -140 mV): 0.1631
F/Fmax Mean ([1]; 10 µM CP1, 0 mV): 0.9059
F/Fmax Mean ([1]; 10 µM CP1, 10 mV): 0.9298
F/Fmax Mean ([1]; 10 µM CP1, 20 mV): 0.9639
F/Fmax Mean ([1]; 10 µM CP1, 30 mV): 0.9526
F/Fmax Mean ([1]; 10 µM CP1, 40 mV): 1.0000
F/Fmax Mean ([1]; 10 µM CP1, -10 mV): 0.8465
F/Fmax Mean ([1]; 10 µM CP1, -20 mV): 0.8444
F/Fmax Mean ([1]; 10 µM CP1, -30 mV): 0.7943
F/Fmax Mean ([1]; 10 µM CP1, -40 mV): 0.7337
F/Fmax Mean ([1]; 10 µM CP1, -50 mV): 0.6357
F/Fmax Mean ([1]; 10 µM CP1, -60 mV): 0.5712
F/Fmax Mean ([1]; 10 µM CP1, -70 mV): 0.4588
F/Fmax Mean ([1]; 10 µM CP1, -80 mV): 0.4066
F/Fmax Mean ([1]; 10 µM CP1, -90 mV): 0.2751
F/Fmax Mean ([1]; 10 µM CP1, -100 mV): 0.1745
F/Fmax Mean ([1]; 10 µM CP1, -110 mV): 0.1186
F/Fmax Mean ([1]; 10 µM CP1, -120 mV): 0.0457
F/Fmax Mean ([1]; 10 µM CP1, -130 mV): 0.0520
F/Fmax Mean ([1]; 10 µM CP1, -140 mV): 0.0265
SMILES: O=S(=O)([O-])Oc1c(-c2sc3c(ccc4cccc(Cl)c43)c2OS(=O)(=O)[O-])[nH]c2ccc(Br)cc12.[Na+].[Na+] [CP1, DISODIUM 5-BROMO-2-[9-CHLORO-3-(SULFONATOOXY) NAPHTHO [1,2-B] THIEN-2-YL]-1H-INDOL-3-YL SULFATE]
KCNQ1 currents after PIP2 depletion (KCNQ1): currents increased with consecutive voltage pulses
